Source: publication PMC5218480 (PLoS ONE, 2017)

Tested on: MV-4-11 cells
Assay: Gene expression microarray analysis (Affymetrix PrimeView) and GSEA
Type: cell-based, human
Parameters: RFU PODN (11730768_x_at) / Fold change /veh PODN (11730768_x_at) / RFU LINC00158 (11744669_a_at) / Fold change /veh LINC00158 (11744669_a_at) / RFU DUSP10 (11751237_a_at) / Fold change /veh DUSP10 (11751237_a_at) / RFU ID3 (11757404_x_at) / Fold change /veh ID3 (11757404_x_at) / RFU PLEKHG5 (11737974_s_at) / Fold change /veh PLEKHG5 (11737974_s_at) / RFU LRRC4B (11730491_at) / Fold change /veh LRRC4B (11730491_at) / RFU GIMAP4 (11747438_a_at) / Fold change /veh GIMAP4 (11747438_a_at) / RFU KRT8 (11758183_x_at) / Fold change /veh KRT8 (11758183_x_at) / RFU CNN1 (11734310_a_at) / Fold change /veh CNN1 (11734310_a_at) / RFU VPS37D (11726825_at) / Fold change /veh VPS37D (11726825_at) / RFU C10orf10 (11716522_x_at) / Fold change /veh C10orf10 (11716522_x_at) / RFU KIR2DL2 /// KIR2DL4 /// KIR2DL5A /// KIR2DL5B /// KIR2DS1 /// KIR2DS2 /// KIR2DS3 /// KIR2DS4 /// KIR3DL3 /// KIR3DL3 /// KIR3DS1 (11738374_at) / Fold change /veh KIR2DL2 /// KIR2DL4 /// KIR2DL5A /// KIR2DL5B /// KIR2DS1 /// KIR2DS2 /// KIR2DS3 /// KIR2DS4 /// KIR3DL3 /// KIR3DL3 /// KIR3DS1 (11738374_at) / RFU C1QL1 (11718748_at) / Fold change /veh C1QL1 (11718748_at) / RFU TMPRSS4 (11747572_a_at) / Fold change /veh TMPRSS4 (11747572_a_at) / RFU HAMP (11756126_x_at) / Fold change /veh HAMP (11756126_x_at) / RFU RNFT2 (11725882_a_at) / Fold change /veh RNFT2 (11725882_a_at) / RFU NR4A2 (11747474_a_at) / Fold change /veh NR4A2 (11747474_a_at) / RFU ABCC12 (11746883_a_at) / Fold change /veh ABCC12 (11746883_a_at) / RFU TMEM136 (11760407_x_at) / Fold change /veh TMEM136 (11760407_x_at) / RFU CLDN22 /// WWC2 (11732394_at) / Fold change /veh CLDN22 /// WWC2 (11732394_at) / RFU HLA-DPB1 (11760878_x_at) / Fold change /veh HLA-DPB1 (11760878_x_at) / RFU SPINT1 (11716480_a_at) / Fold change /veh SPINT1 (11716480_a_at) / RFU GAP43 (11754022_s_at) / Fold change /veh GAP43 (11754022_s_at) / RFU A4GNT (11735810_at) / Fold change /veh A4GNT (11735810_at) / RFU PRB3 (11715151_x_at) / Fold change /veh PRB3 (11715151_x_at) / RFU TUBB4B (11761932_at) / Fold change /veh TUBB4B (11761932_at) / RFU CAPN14 (11732068_a_at) / Fold change /veh CAPN14 (11732068_a_at) / RFU TMCC2 (11721928_a_at) / Fold change /veh TMCC2 (11721928_a_at) / RFU IRGQ (11745062_a_at) / Fold change /veh IRGQ (11745062_a_at) / RFU FAM174B (11720279_a_at) / Fold change /veh FAM174B (11720279_a_at) / RFU TMPRSS4 (11748680_a_at) / Fold change /veh TMPRSS4 (11748680_a_at) / RFU FAM212B (11763350_a_at) / Fold change /veh FAM212B (11763350_a_at) / RFU PLEKHG5 (11743358_a_at) / Fold change /veh PLEKHG5 (11743358_a_at) / RFU ZSCAN30 (11745921_a_at) / Fold change /veh ZSCAN30 (11745921_a_at) / RFU CMKLR1 (11741424_a_at) / Fold change /veh CMKLR1 (11741424_a_at) / RFU LOC101060620 /// MAPK8IP1 (11723275_at) / Fold change /veh LOC101060620 /// MAPK8IP1 (11723275_at) / RFU SPTSSB (11747773_x_at) / Fold change /veh SPTSSB (11747773_x_at) / RFU PRSS12 (11739890_at) / Fold change /veh PRSS12 (11739890_at) / RFU BIN1 (11741810_x_at) / Fold change /veh BIN1 (11741810_x_at) / RFU WNT11 (11732464_a_at) / Fold change /veh WNT11 (11732464_a_at) / RFU C10orf10 (11716521_a_at) / Fold change /veh C10orf10 (11716521_a_at) / RFU C5orf56 (11738089_at) / Fold change /veh C5orf56 (11738089_at) / RFU CYB561 (11721691_x_at) / Fold change /veh CYB561 (11721691_x_at) / RFU ANKRD19P (11752326_a_at) / Fold change /veh ANKRD19P (11752326_a_at) / RFU OR2T12 /// OR2T33 /// OR2T8 (11738714_s_at) / Fold change /veh OR2T12 /// OR2T33 /// OR2T8 (11738714_s_at) / RFU VCAN (11748164_a_at) / Fold change /veh VCAN (11748164_a_at) / RFU JSRP1 (11732532_at) / Fold change /veh JSRP1 (11732532_at) / RFU KRTAP10-11 (11738290_x_at) / Fold change /veh KRTAP10-11 (11738290_x_at) / RFU MYO3A (11730013_a_at) / Fold change /veh MYO3A (11730013_a_at) / RFU EBF3 (11725865_a_at) / Fold change /veh EBF3 (11725865_a_at) / RFU CAMK2N1 (11719241_x_at) / Fold change /veh CAMK2N1 (11719241_x_at) / RFU C5orf56 (11738088_a_at) / Fold change /veh C5orf56 (11738088_a_at) / RFU OLFML3 (11715873_a_at) / Fold change /veh OLFML3 (11715873_a_at) / RFU LOC100653217 /// NTM (11731650_a_at) / Fold change /veh LOC100653217 /// NTM (11731650_a_at) / RFU MAPK11 (11762145_a_at) / Fold change /veh MAPK11 (11762145_a_at) / RFU FIZ1 (11724087_x_at) / Fold change /veh FIZ1 (11724087_x_at) / RFU OASL (11726364_x_at) / Fold change /veh OASL (11726364_x_at) / RFU SOX15 (11748057_x_at) / Fold change /veh SOX15 (11748057_x_at) / RFU CD79A (11719716_a_at) / Fold change /veh CD79A (11719716_a_at) / RFU HIST1H1D (11736915_at) / Fold change /veh HIST1H1D (11736915_at) / RFU CASKIN2 (11723855_a_at) / Fold change /veh CASKIN2 (11723855_a_at) / RFU LOC730098 (11760151_x_at) / Fold change /veh LOC730098 (11760151_x_at) / RFU OR4N2 (11742367_at) / Fold change /veh OR4N2 (11742367_at) / RFU PRRT2 (11749266_a_at) / Fold change /veh PRRT2 (11749266_a_at) / RFU SNX32 (11753110_a_at) / Fold change /veh SNX32 (11753110_a_at) / RFU CDHR5 (11726645_a_at) / Fold change /veh CDHR5 (11726645_a_at) / RFU RCAN1 (11760418_a_at) / Fold change /veh RCAN1 (11760418_a_at) / RFU FAM167A (11723789_a_at) / Fold change /veh FAM167A (11723789_a_at) / RFU FAM26E (11764081_at) / Fold change /veh FAM26E (11764081_at) / RFU ISYNA1 (11749810_s_at) / Fold change /veh ISYNA1 (11749810_s_at) / RFU ACY1 (11761880_at) / Fold change /veh ACY1 (11761880_at) / RFU 11764098_at / Fold change /veh 11764098_at / RFU SAMD14 (11745864_x_at) / Fold change /veh SAMD14 (11745864_x_at) / RFU NPB (11741838_a_at) / Fold change /veh NPB (11741838_a_at) / RFU TMPRSS6 (11731388_a_at) / Fold change /veh TMPRSS6 (11731388_a_at) / RFU KRTAP10-2 (11738614_at) / Fold change /veh KRTAP10-2 (11738614_at) / RFU ARHGAP8 /// PRR5-ARHGAP8 (11727945_x_at) / Fold change /veh ARHGAP8 /// PRR5-ARHGAP8 (11727945_x_at) / RFU KRTAP5-7 /// NADSYN1 (11734609_at) / Fold change /veh KRTAP5-7 /// NADSYN1 (11734609_at) / RFU RASL12 (11751679_a_at) / Fold change /veh RASL12 (11751679_a_at) / RFU CDKN2B (11736163_a_at) / Fold change /veh CDKN2B (11736163_a_at) / RFU PRF1 (11729649_at) / Fold change /veh PRF1 (11729649_at) / RFU, ZNF638 /// ZNF638-IT1 / Fold change vs veh, ZNF638 /// ZNF638-IT1 / RFU, PANK3 / Fold change vs veh, PANK3 / RFU, SH3YL1 / Fold change vs veh, SH3YL1 / RFU, ZEB2 / Fold change vs veh, ZEB2 / RFU, NRIP1 / Fold change vs veh, NRIP1 / RFU, PTTG1IP / Fold change vs veh, PTTG1IP / RFU, CAPN2 / Fold change vs veh, CAPN2 / RFU, MED14 / Fold change vs veh, MED14 / RFU, SNORA58 / Fold change vs veh, SNORA58 / RFU, C1orf63 / Fold change vs veh, C1orf63 / RFU, LRRFIP1 / Fold change vs veh, LRRFIP1 / RFU, NDUFAF7 / Fold change vs veh, NDUFAF7 / RFU, SLC12A2 / Fold change vs veh, SLC12A2 / RFU, IBTK / Fold change vs veh, IBTK / RFU, ESF1 / Fold change vs veh, ESF1 / Fold change vs veh, TMEM50B / RFU, TAOK1 / Fold change vs veh, TAOK1 / RFU, ACBD3 / Fold change vs veh, ACBD3 / RFU, TMA16 / Fold change vs veh, TMA16 / RFU, RWDD3 / Fold change vs veh, RWDD3 / RFU, BCAT1 / Fold change vs veh, BCAT1 / RFU, EDEM3 / Fold change vs veh, EDEM3 / RFU, TMEM33 / Fold change vs veh, TMEM33 / RFU, WDR75 / Fold change vs veh, WDR75 / RFU, AHCTF1 / Fold change vs veh, AHCTF1 / RFU, TFRC / Fold change vs veh, TFRC / RFU, ZDHHC17 / Fold change vs veh, ZDHHC17 / RFU, NOM1 / Fold change vs veh, NOM1 / RFU, ARL8B / Fold change vs veh, ARL8B / RFU, ZBTB11 / Fold change vs veh, ZBTB11 / RFU, TAMM41 / Fold change vs veh, TAMM41 / RFU, KIAA1704 /// LOC100996395 / Fold change vs veh, KIAA1704 /// LOC100996395 / RFU, ING1 / Fold change vs veh, ING1 / RFU, TRMT61B / Fold change vs veh, TRMT61B / RFU, FUBP3 / Fold change vs veh, FUBP3 / RFU, TP53 / Fold change vs veh, TP53 / RFU, TNKS2 / Fold change vs veh, TNKS2 / RFU, ZFP14 / Fold change vs veh, ZFP14 / RFU, ACTR2 / Fold change vs veh, ACTR2 / RFU, PPP3R1 / Fold change vs veh, PPP3R1 / RFU, PIK3R1 / Fold change vs veh, PIK3R1 / RFU, HNRNPA1 / Fold change vs veh, HNRNPA1 / RFU, RNF170 / Fold change vs veh, RNF170 / RFU, ZNF28 / Fold change vs veh, ZNF28 / RFU, RNGTT / Fold change vs veh, RNGTT / RFU, OGT / Fold change vs veh, OGT / RFU, BRD1 / Fold change vs veh, BRD1 / RFU, MARS / Fold change vs veh, MARS / RFU, ZNF655 / Fold change vs veh, ZNF655 / RFU, FAHD1 / Fold change vs veh, FAHD1 / RFU, BDP1 / Fold change vs veh, BDP1 / RFU, LRRCC1 / Fold change vs veh, LRRCC1 / RFU, ARID1A / Fold change vs veh, ARID1A / RFU, ZNF146 / Fold change vs veh, ZNF146 / RFU, ZNF330 / Fold change vs veh, ZNF330 / RFU, GPN3 / Fold change vs veh, GPN3 / RFU, C9orf123 / Fold change vs veh, C9orf123 / RFU, N4BP2L2 / Fold change vs veh, N4BP2L2 / RFU, ARFIP1 / Fold change vs veh, ARFIP1 / RFU, FAM179B / Fold change vs veh, FAM179B / RFU, BCL10 / Fold change vs veh, BCL10 / RFU, UHRF1BP1L / Fold change vs veh, UHRF1BP1L / RFU, BET1 / Fold change vs veh, BET1 / RFU, CNOT2 / Fold change vs veh, CNOT2 / RFU, ZNF268 / Fold change vs veh, ZNF268 / Fold change vs veh, ZNF507 / RFU, DGCR2 / Fold change vs veh, DGCR2 / RFU, WDSUB1 / Fold change vs veh, WDSUB1 / Fold change vs veh, HSP90B1 /// MIR3652 / RFU, ADSS / Fold change vs veh, ADSS / RFU, GK / Fold change vs veh, GK / RFU, ZNF148 / Fold change vs veh, ZNF148 / RFU, TAF9 / Fold change vs veh, TAF9 / RFU, SLC1A5 / Fold change vs veh, SLC1A5 / RFU, SLMO2 / Fold change vs veh, SLMO2 / RFU, ABCC4 / Fold change vs veh, ABCC4 / RFU, LOC101060439 /// RAP1B / Fold change vs veh, LOC101060439 /// RAP1B / RFU, RFX7 / Fold change vs veh, RFX7 / RFU, GTPBP10 / Fold change vs veh, GTPBP10 / RFU, CNEP1R1 / Fold change vs veh, CNEP1R1 / RFU, BIVM-ERCC5 /// ERCC5 / Fold change vs veh, BIVM-ERCC5 /// ERCC5 / RFU, ILF3 / Fold change vs veh, ILF3 / RFU 11762660_at / Fold change /veh 11762660_at / RFU VCAN (11757783_s_at) / Fold change /veh VCAN (11757783_s_at) / RFU DDX43 (11728927_at) / Fold change /veh DDX43 (11728927_at) / RFU KRT8 (11758188_x_at) / Fold change /veh KRT8 (11758188_x_at) / RFU NKD1 (11759106_at) / Fold change /veh NKD1 (11759106_at) / RFU SRD5A1 (11742802_a_at) / Fold change /veh SRD5A1 (11742802_a_at) / RFU TPSAB1 /// TPSB2 (11721975_s_at) / Fold change /veh TPSAB1 /// TPSB2 (11721975_s_at) / RFU GSTM3 (11746129_a_at) / Fold change /veh GSTM3 (11746129_a_at) / RFU IL23R (11737362_x_at) / Fold change /veh IL23R (11737362_x_at) / RFU TMEM51 (11727254_a_at) / Fold change /veh TMEM51 (11727254_a_at) / RFU PIWIL2 (11732686_x_at) / Fold change /veh PIWIL2 (11732686_x_at) / RFU ORM1 (11744905_x_at) / Fold change /veh ORM1 (11744905_x_at) / RFU CCDC152 (11743942_at) / Fold change /veh CCDC152 (11743942_at) / RFU ECM1 (11717891_a_at) / Fold change /veh ECM1 (11717891_a_at) / RFU IL23R (11748794_a_at) / Fold change /veh IL23R (11748794_a_at) / RFU TNFAIP8L3 (11732012_x_at) / Fold change /veh TNFAIP8L3 (11732012_x_at) / RFU MBOAT4 (11741988_at) / Fold change /veh MBOAT4 (11741988_at) / RFU 11764193_at / Fold change /veh 11764193_at / RFU TMEM53 (11763286_at) / Fold change /veh TMEM53 (11763286_at) / RFU MAGEB2 (11727129_at) / Fold change /veh MAGEB2 (11727129_at) / RFU TMEM200A (11744735_a_at) / Fold change /veh TMEM200A (11744735_a_at) / RFU CCDC152 (11751479_a_at) / Fold change /veh CCDC152 (11751479_a_at) / RFU FAM211A (11726209_a_at) / Fold change /veh FAM211A (11726209_a_at) / RFU RGS16 (11746705_a_at) / Fold change /veh RGS16 (11746705_a_at) / RFU VCAN (11755009_s_at) / Fold change /veh VCAN (11755009_s_at) / RFU RHOB (11743442_s_at) / Fold change /veh RHOB (11743442_s_at) / RFU RGS16 (11720943_a_at) / Fold change /veh RGS16 (11720943_a_at) / RFU RGS16 (11720944_at) / Fold change /veh RGS16 (11720944_at) / RFU, VPS4B / Fold change vs veh, VPS4B / RFU, CREB1 / Fold change vs veh, CREB1 / RFU, DNAJC13 / Fold change vs veh, DNAJC13 / RFU, GNAQ / Fold change vs veh, GNAQ / RFU, CDK5R1 / Fold change vs veh, CDK5R1 / RFU, ZRANB3 / Fold change vs veh, ZRANB3 / RFU, CUL4A / Fold change vs veh, CUL4A / RFU, CCNY / Fold change vs veh, CCNY / RFU, UFL1 / Fold change vs veh, UFL1 / RFU, COG3 / Fold change vs veh, COG3 / RFU, DIAPH2 / Fold change vs veh, DIAPH2 / RFU, SKA2 / Fold change vs veh, SKA2 / RFU, AFF3 / Fold change vs veh, AFF3 / RFU, LMF1 / Fold change vs veh, LMF1 / RFU, IPO11 / Fold change vs veh, IPO11 / RFU, DFFB / Fold change vs veh, DFFB / RFU, FOXP1 / Fold change vs veh, FOXP1 / RFU, CARD8 / Fold change vs veh, CARD8 / RFU, STRN3 / Fold change vs veh, STRN3 / RFU, ADK / Fold change vs veh, ADK / RFU, RASSF2 / Fold change vs veh, RASSF2 / RFU, WIPF1 / Fold change vs veh, WIPF1 / RFU, LARP1B / Fold change vs veh, LARP1B / RFU, RASA1 / Fold change vs veh, RASA1 / RFU, RB1 / Fold change vs veh, RB1 / RFU, PPFIA1 / Fold change vs veh, PPFIA1 / RFU, MAT2A / Fold change vs veh, MAT2A / RFU, CCT5 / Fold change vs veh, CCT5 / RFU, WDR92 / Fold change vs veh, WDR92 / RFU, CUX1 / Fold change vs veh, CUX1 / RFU, TTC7A / Fold change vs veh, TTC7A / RFU, TMEM135 / Fold change vs veh, TMEM135 / RFU, DEPTOR / Fold change vs veh, DEPTOR / RFU, CPM / Fold change vs veh, CPM / RFU, DNAJB6 / Fold change vs veh, DNAJB6 / RFU, CACNA2D3 / Fold change vs veh, CACNA2D3 / RFU, DTX4 / Fold change vs veh, DTX4 / RFU, TFCP2 / Fold change vs veh, TFCP2 / RFU, GMCL1 /// GMCL1P1 / Fold change vs veh, GMCL1 /// GMCL1P1 / RFU, AEBP2 / Fold change vs veh, AEBP2 / RFU, SNHG1 /// SNORD22 /// SNORD25 /// SNORD26 /// SNORD27 /// SNORD28 /// SNORD29 /// SNORD31 / Fold change vs veh, SNHG1 /// SNORD22 /// SNORD25 /// SNORD26 /// SNORD27 /// SNORD28 /// SNORD29 /// SNORD31 / Fold change (Aza/veh), C12orf56 (ProbeSet 11735607_a_at) / Fold change (ACY-1035/veh), C12orf56 (ProbeSet 11735607_a_at) / Fold change (Aza/veh), FGFR1OP (ProbeSet 11751329_s_at) / Fold change (ACY-1035/veh), FGFR1OP (ProbeSet 11751329_s_at) / Fold change (Aza/veh), VPS36 (ProbeSet 11739960_a_at) / Fold change (ACY-1035/veh), VPS36 (ProbeSet 11739960_a_at) / RFU SYPL1 (11715823_x_at) / Fold change /veh SYPL1 (11715823_x_at) / RFU IGFBP7 (11715501_s_at) / Fold change /veh IGFBP7 (11715501_s_at) / RFU REEP3 (11722064_at) / Fold change /veh REEP3 (11722064_at) / RFU IGLL1 (11728026_x_at) / Fold change /veh IGLL1 (11728026_x_at): dose or concentration left out as unconfirmed
Details: ProbeSet 11728879_at; LIST B

## Nc1ccc(-c2cccs2)cc1NC(=O)c1ccc2c(c1)cc(C1CC1)n2CCN1CCOCC1 [ACY-1035]
  RFU, PPP3R1: 371.71 RFU
